These results are taken from ChEMBL document CHEMBL1145360, “Highly potent growth hormone secretagogues” (Bioorg Med Chem Lett, 2007).

The nature of assay [1]: Stimulation of growth hormone in rat pituitary cell. The format is functional, cell-based. Particulars: pituitary gland cell.
The subject of assay [2] is Canis familiaris. Description: Effect on growth hormone release in Beagle dog assessed as increase of GH level at 0.25 mg/kg, po relative to basal level. The format is functional, Canis lupus familiaris.
The subject of assay [3] is Canis familiaris. Description: Effect on growth hormone release in Beagle dog assessed as increase of GH level at 0.50 mg/kg, po relative to basal level. It is filed as functional, Canis lupus familiaris. To be noted: dose 0.5 mg/kg.
In assay [4] the test system is Canis familiaris. Description: Effect on growth hormone release in Beagle dog assessed as increase of GH level at 0.06 mg/kg, po relative to basal level. It is filed as functional, Canis lupus familiaris.
Assay [5] concerns Canis familiaris. Description: Effect on growth hormone release in Beagle dog assessed as increase of GH level at 0.01 mg/kg, iv relative to basal level. The format is functional, Canis lupus familiaris.

As for `CC(C)(N)C(=O)N[C@H](CCCc1ccccc1)C(=O)N1CCC2(CC1)C[C@@H](C(=O)NCCNS(C)(=O)=O)c1ccccc12`, in assay [1], the concentration for a half-maximal effect (EC50) (in general, the concentration needed to bring the measured effect to its halfway point) came to 210 pM.

In assay [1], `CC(C)(N)C(=O)N[C@H](CCCc1ccccc1)C(=O)N1CCC2(CC1)C[C@@H](C(N)=O)c1ccccc12.Cl` registered an EC50 of 90 pM. In the assay with Canis familiaris [2], the Fold change was 4.

Turning to `CNC(=O)[C@@H]1CC2(CCN(C(=O)[C@@H](CCCc3ccccc3)NC(=O)C(C)(C)N)CC2)c2ccccc21`, a half-maximal effect in assay [1] (EC50) was put at 400 pM.

`CC(C)(N)C(=O)N[C@H](CCCc1ccccc1)C(=O)N1CCC2(CC1)C[C@@H](C(=O)NCCO)c1ccccc12.Cl` returned a half-maximal effective concentration (EC50) in assay [1] of 510 pM. In addition, the Fold change in the assay on Canis familiaris [3] worked out at 4.

Regarding `C=CCNC(=O)[C@@H]1CC2(CCN(C(=O)[C@@H](CCCc3ccccc3)NC(=O)C(C)(C)N)CC2)c2ccccc21`, the midpoint of the response in assay [1], the EC50, lay at 140 pM.

In assay [1], `CC(C)(N)C(=O)N[C@H](CCCc1ccccc1)C(=O)N1CCC2(CC1)C[C@H](C(N)=O)c1ccccc12` displayed an EC50 of 350 pM. This EC50 is about 2.5-fold higher than that of the compound before.

`CC(C)(N)C(=O)N[C@H](CCCc1ccccc1)C(=O)N1CCC2(CC1)C[C@H](C(=O)NCCCCO)c1ccccc12` displayed a concentration for a half-maximal effect (EC50) in assay [1] of 730 pM.

Compound `CC(C)(N)C(=O)N[C@H](CCCc1ccccc1)C(=O)N1CCC2(CC1)C[C@@H](C(=O)NCCCCO)c1ccccc12` registered a concentration giving a half-maximal response (EC50) in assay [1] of 440 pM.

As for `CC(C)(N)C(=O)N[C@H](CCCc1ccccc1)C(=O)N1CCC2(CC1)C[C@H](C(=O)NCCCO)c1ccccc12`, the EC50 in assay [1] was 850 pM.

In assay [1], `CCNC(=O)[C@@H]1CC2(CCN(C(=O)[C@@H](CCCc3ccccc3)NC(=O)C(C)(C)N)CC2)c2ccccc21` returned an EC50 of 900 pM.

`CC(C)(N)C(=O)N[C@H](CCCc1ccccc1)C(=O)N1CCC2(CC1)C[C@@H](C(=O)Nc1ccccc1)c1ccccc12` had a 50% effective concentration (EC50) in assay [1] of 1200 pM.

In the case of `CC(C)NC(=O)[C@@H]1CC2(CCN(C(=O)[C@@H](CCCc3ccccc3)NC(=O)C(C)(C)N)CC2)c2ccccc21`, in assay [1], the EC50 worked out at 300 pM. This EC50 lies about 4-fold lower than the previous one.

In assay [1], `CC(C)(N)C(=O)N[C@H](CCCc1ccccc1)C(=O)N1CCC2(CC1)C[C@@H](C(=O)NCCCO)c1ccccc12` gave a concentration for a half-maximal effect (EC50) of 410 pM.

`CC(C)(N)C(=O)N[C@H](CCCc1ccccc1)C(=O)N1CCC2(CC1)C[C@H](C(=O)NCCO)c1ccccc12`: the EC50 in assay [1] is 450 pM.

For `CCNC(=O)[C@H]1CC2(CCN(C(=O)[C@@H](CCCc3ccccc3)NC(=O)C(C)(C)N)CC2)c2ccccc21`, the EC50 in assay [1] amounted to 2100 pM.

For the compound `CCCNC(=O)[C@@H]1CC2(CCN(C(=O)[C@@H](CCCc3ccccc3)NC(=O)C(C)(C)N)CC2)c2ccccc21.Cl`, a half-maximal response in assay [1] (EC50) required 150 pM. The Fold change in the assay with Canis familiaris [4] and in the assay on Canis familiaris [5] was 4 each time.

Turning to `CNC(=O)[C@H]1CC2(CCN(C(=O)[C@@H](CCCc3ccccc3)NC(=O)C(C)(C)N)CC2)c2ccccc21`, the EC50 in assay [1] was 3800 pM. In other words, the single-digit nanomolar range.

Compound `CC(C)(N)C(=O)N[C@H](COCc1ccccc1)C(=O)N1CCC2(CC1)CN(S(C)(=O)=O)c1ccccc12` [IBUTAMOREN] had a half-maximal effective concentration (EC50) in assay [1] of 1500 pM.
